Assay results taken from patent publication US6335019B1, “Methods for treating sensitivity to protein allergen using peptides which include a T cell epitope recognized by a T cell receptor specific for the protein allergen” (Immulogic Pharmaceutical Corp., priority 1989, dated 2002).

B1: Amb a IA(t): truncated recombinant Amb a IA, amino acid 70-398, E. coli expressed, used as crude bacterial lysate (protein)
chain: DCAQGFGKGTVGGKDGDIYTVTSELDDDVANPKEGTLRFGAAQNRPLWIIFERDMVIRLDKEMVVNSDKTIDGRGAKVEIINAGFTLNGVKNVIIHNINMHDVKVNPGGLIKSNDGPAAPRAGSDGDAISISGSSQIWIDHCSLSKSVDGLVDAKLGTTRLTVSNSLFTQHQFVLLFGAGDENIEDRGMLATVAFNTFTDNVDQRMPRCRHGFFQVVNNNYDKWGSYAIGGSASPTILSQGNRFCAPDERSKKNVLGRHGEAAAESMKWNWRTNKDVLENGAIFVASGVDPVLTPEQSAGMIPAEPGESALSLTSSAGVLSCQPGAPC

Key:
[1] = system: ragweed pollen-specific T cells of ragweed allergic patients; experiment: Secondary and tertiary T cell proliferation assays of a panel of ragweed allergic patients with synthetic peptides; type: cell-based, human; conditions: for Stimulation of ragweed allergic patient T cells by synthetic peptide (in words): in vitro proliferation assays; for NUMBER POSITIVE (patients with T cell response to peptide) / POSITIVE % (patients whose T cells are stimulated by peptide): positive = T cell proliferative response greater than 2-fold above culture medium control
Protocol: (§1) Peripheral blood mononuclear cells (PBMC) were purified from 60 ml of heparinized blood from ragweed-allergic patients. PBMC were subsequently treated as described below, although in individual cases, the length of time of cultivation with IL-2 and IL-4 and the specific ragweed proteins and peptides used for stimulation varied. As an example, ten ml of patient 222 PBMC at 10^6/ml were cultured at 37° C. for 7 days in the presence of 20 micrograms aqueous ragweed pollen extract/ml RPMI-1640 supplemented with 5% pooled human AB serum. Viable cells were purified by Ficoll-Hypaque centrifugation and cultured for three weeks at 5 units recombinant human IL-2/ml and 5 units recombinant human IL-4/ml. The resting T cells were then restimulated (secondary) with 20 micrograms aqueous ragweed pollen extract/ml at a density of 2×10^5 cells/ml in the presence of X-irradiated (3500 RADS) autologous PBMC (5×10^5/ml) for three days, purified by Ficoll-Hypaque centrifugation and grown in 5 units IL-2/ml and 5 units IL-4/ml for two weeks. For assay, 2×10^4 resting secondary T cells were restimulated (tertiary) in the presence of 5×10^4 X-irradiated (3500 RADS) autologous PBMC or 2×10^4 autologous Epstein-Barr virus-transformed B cells (20,000 RADS) with various concentrations of allergen or their fragments in a volume of 200 microliters in 96-well round bottom assay plates for 3 days. Each well then received 1 microCurie tritiated (methyl) thymidine for 16 hours. The counts incorporated were collected onto glass fiber filters and processed for liquid scintillation counting. […] Antigens used: IPC aqueous pollen extract (pollen), Hollister-Stier ragweed skin test extract (RWST), ALK cat epithelium skin test extract (CST), affinity 4B5/B7 antibody purified (dialyzed) Amb a I (B7), and chromatographically purified Amb a I and (Amb a I). Medium only control is shown as a line with no symbol. Alternatively, PBMC were sometimes carried only into a secondary assay (as outlined above for a tertiary assay) with 20 micrograms aqueous pollen extract 7 days, followed by culture in 5 units IL-2/ml and 5 units IL-4/ml for 2-3 weeks. […] Secondary and tertiary assays of a panel of ragweed allergic patients were performed using synthetic peptides derived from the sequences of various ragweed pollen proteins. […] Another four peptides (RAE15.6, RAE3.D, RAE28.1, RAE26.15) which are also derived from the sequence of the same three cDNA's could stimulate 35 to 58% of the patients' T cells. One peptide (RAE4) which is derived from the cDNA of IPC Clone 5 could also stimulate 25% of the patients' T cells. […] By this method it is possible to identify novel therapeutic and diagnostics entities for use in the treatment and the diagnosis of ragweed allergy.

[2] = system: human IgE (ragweed allergic patient sera); experiment: SDS-PAGE Western blot (and ELISA) of ragweed allergic patient IgE binding to pollen, affinity purified and recombinant Amb a I / Amb a II; set-up: key to IgE binding, summarized Western blot data: −: no signal over background; +−: barely discernable over background; +: clearly positive; ++: strongly positive; +++: highly positive
Protocol: As represented in FIG. 1A, a selected monoclonal antibody (designated 4B5/B7) which recognizes an Amb a I preparation unsubjected to denaturing conditions was used to affinity purify from pollen extract a single protein, which is referred to as affinity purified Amb a I. This was carried out, using known techniques, by producing the desired monoclonal antibody, isolating it in large quantities from ascites and immobilizing it on Sepharose (Pharmacia). Aqueous pollen extract was passed over the monoclonal antibody-containing column and a protein species was eluted.
Furthermore, full-length and truncated cDNAs encoding several members of the Amb a I multigene family, as well as Amb a II, were cloned in-frame into the expression vector pTrc99 (Amann et al. Gene, 69:301-315, (1988)) and transformed into the JM109 host. Expression of recombinant Amb a I and Amb a II protein was induced by 1 mM isopropyl-β-D-thiogalactopyranoside, cells were harvested, lysozyme treated, sonicated and insoluble inclusion bodies recovered by a low speed centrifugation. Recombinant Amb a I and Amb a II protein present in the recovered pellet was solubilized in buffer containing 8M urea, 50 mM Tris HC1 pH8.0, 50 mM NaCl, 1 mM EDTA, 1 mM dithiothreitol, 1 mM phenylmethylsulfonyl fluoride. After solubilization, the crude urea lysate was dialyzed at 4° C. against PBS. […] This antigenic cross-reactivity is consistent with the observed sequence homology of the cDNAs (see FIG. 16).
Comparison of human IgE binding to recombinant Amb a I and Amb a II proteins with anti-peptide and monoclonal anti-Amb a I antibodies have provided data consistent with the conclusion that the N-terminal portion (historically referred to as the β-region) of Amb a IA includes the major IgE eptiope(s).
Affinity purified Amb a I was electrophoresed, Western transferred (Towbin et al., Proc. Natl. Acad. Sci. USA, 76:4350 (1979)) and probed with a variety of antibodies, including IgE from an allergic patient (FIG. 17). In pollen extract Amb a I is not only present as an intact 38-KD species, but also characterized by its component 26KD alpha chains and 12-KD beta chains which are formed by enzymatic cleavage. The intact 38-KD species and the alpha chain are clearly detected using rabbit anti-Amb a I, polyclonal affinity purified anti-RAE 16 and monoclonal anti-Amb a I JBIE3-4 (FIG. 17); RAE 16 peptide has the sequence RTDKDLLENGAIC derived from amino-acids […] of Amb a IB, FIG. 16). Affinity purified Amb a I (partial sequence presented in Table 1) as well as chromatographically purified Amb a II (partial sequence presented in Table 2) are bound on Western blots by these antibodies as well as by patient IgE (FIG. 17). The goat anti-Amb a I polyclonal antibody also binds multiple Amb a I and Amb a II species on a two dimensional Western blot of pollen extract (FIG. 18). The Western blot was performed as outlined below. […]

[3] = system: T cells from patients allergic to ragweed; experiment: T cell proliferation of ragweed allergic patient T cells to ragweed proteins and recombinant lysates (tritiated thymidine); type: cell-based, human
Source text: T cells from patients allergic to ragweed, previously stimulated with a mixed ragweed pollen extract, can recognize and proliferate in response to pollen extract, ragweed skin test reagent (RWST), affinity purified Amb a I protein and crude bacterial lysates containing recombinant Amb a I gene products IA, IB and IC (Table 4). […] The use of crude bacterial lysates as antigens precludes a firm conclusion form the negative responses, since the relative levels of recombinant proteins in lysate have not been determined.
as §1

Row | Molecule | Stimulation of ragweed allergic patient T cells by synthetic peptide (in words) [1] | NUMBER POSITIVE (patients with T cell response to peptide) [1] | POSITIVE % (patients whose T cells are stimulated by peptide) [1] [%] | also measured
1 | ETRRSLKTSGAYNIIDGCWRGKAD [RAE 24.E] | could not stimulate any | 0 | 0 | 
2 | FFPILGGITEVKDNDNSVDFC [RAE 4, synthetic peptide deduced from IPC Clone 5] | stimulates | 7 | 25 | Stimulation of ragweed allergic patient T cells by synthetic peptide (in words) ([1]; listed as RAE4): could be stimulated
3 | GFFQVVNNNYDRWGTYA [RAE 26.15] |  | 14 | 58 | 
4 | GKADWAENRC [RAE 3.D] |  | 13 | 37 | 
5 | LENGAIFVASGVDPVLTPEQ [RAE 28.1] |  | 17 | 52 | 
6 | LNQELVVNSDKTIDGRGVK [RAE 45.15] | could not stimulate any | 0 | 0 | 
7 | RTDKDLLENGAIC [RAE 16.6] | could not stimulate any | 0 | 0 | 
8 | YTVTSDKDDDVANC [RAE 15.6] |  | 7 | 35 | 
9 | B1 |  |  |  | Human IgE binding (in words) ([2]; Western blot (FIG. 17) and/or ELISA, ragweed allergic patient IgE): less well than the full-length Amb a IA; IgE binding, summarized Western blot data ([2]; patient 151): −; IgE binding, summarized Western blot data ([2]; patient 222): +−; IgE binding, summarized Western blot data ([2]; patient 291): +; IgE binding, summarized Western blot data ([2]; patient 295): +; Stimulatory response of human T cells (proliferation compared to medium control) ([3]; patient 151 2° (secondary assay)): + (2-4 fold); Stimulatory response of human T cells (proliferation compared to medium control) ([3]; patient 222 2° (secondary assay)): ++ (4-10 fold); Stimulatory response of human T cells (proliferation compared to medium control) ([3]; patient 295 2° (secondary assay)): + (2-4 fold); Stimulatory response of human T cells (proliferation compared to medium control) ([3]; patient 296 2° (secondary assay)): +++ (>10 fold); Stimulatory response of human T cells (proliferation compared to medium control) ([3]; patient 314 2° (secondary assay)): +++ (>10 fold); Stimulatory response of human T cells (proliferation compared to medium control) ([3]; patient 316 2° (secondary assay)): +++ (>10 fold); Stimulatory response of human T cells (proliferation compared to medium control) ([3]; patient 320 2° (secondary assay)): ++ (4-10 fold); Stimulatory response of human T cells (proliferation compared to medium control) ([3]; patient 321 2° (secondary assay)): ++ (4-10 fold)
